Data reported in paper PMC4386773 (International Journal of Nanomedicine, 2015).
≈ marks a conversion by molar mass, not a printed value. Marks after values point to notes of the source that are not given here.

What was measured:
[1] = Solubility of SNX-2112 in water and oil; format: physicochemical
[2] = Nonparticulate PBPK modeling of SNX-2112 disposition in rats; format: in vivo; settings: estimated by nonparticulate PBPK modeling
[3] = after oral administration; cited from earlier work

solubility ([1]; soybean oil, oil or lipid): 5 µg/mL (≈ 10.8 µM) | solubility ([1]; water): 8 µg/mL (≈ 17.2 µM) | CLH (hepatic clearance) [2]: 0.0246 ^a L/h
Structure (SMILES): CC1(C)CC(=O)c2c(C(F)(F)F)nn(-c3ccc(C(N)=O)c(N[C@H]4CC[C@H](O)CC4)c3)c2C1 [SNX-2112]
oral bioavailability [3]: hardly bioavailable
